Assay results from ChEMBL document CHEMBL4417631, “Oral peptide inhibitors of interleukin-23 receptor and their use to treat inflammatory bowel diseases” (2017).
Where a SMILES comes first, the peptide text is derived from it. [ ]: non-standard residue; d: D form. hLeu = CC(C)CC[C@H](N)C(=O)O

Tests used:
[1] = Inhibition of interleukin-23 binding to rat interleukin-23 receptor incubated for 2 hrs by competitive binding ELISA
Interleukin-23 receptor [2] = target: T1, Interleukin-23 receptor (Homo sapiens, UniProt Q5VWK5); experiment: Inhibition of interleukin-23 receptor in human DB cells assessed as reduction in IL-23-stimulated STAT3 phosphorylation incubated for 30 mins by HTRF assay; format: cell-based
T1 sequence (Q5VWK5 whole entry): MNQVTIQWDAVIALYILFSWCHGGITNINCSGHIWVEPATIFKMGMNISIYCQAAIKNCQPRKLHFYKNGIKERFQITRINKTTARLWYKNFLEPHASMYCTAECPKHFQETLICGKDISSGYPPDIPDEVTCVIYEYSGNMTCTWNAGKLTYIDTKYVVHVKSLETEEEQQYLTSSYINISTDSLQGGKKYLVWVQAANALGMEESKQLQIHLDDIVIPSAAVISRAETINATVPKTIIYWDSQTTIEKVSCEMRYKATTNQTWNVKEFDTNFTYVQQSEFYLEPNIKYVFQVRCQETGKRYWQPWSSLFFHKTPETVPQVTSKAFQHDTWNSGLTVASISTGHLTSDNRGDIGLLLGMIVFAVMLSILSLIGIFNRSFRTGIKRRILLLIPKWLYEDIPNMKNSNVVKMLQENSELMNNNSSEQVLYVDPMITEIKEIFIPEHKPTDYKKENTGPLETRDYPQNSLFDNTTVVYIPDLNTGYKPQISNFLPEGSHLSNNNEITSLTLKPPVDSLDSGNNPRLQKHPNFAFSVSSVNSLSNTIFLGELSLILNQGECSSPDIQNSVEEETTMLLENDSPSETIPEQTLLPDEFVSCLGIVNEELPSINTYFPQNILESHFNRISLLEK

Interleukin-23 receptor [3] = target: T1, Interleukin-23 receptor; experiment: Inhibition of interleukin-23 binding to human interleukin-23 receptor incubated for 2 hrs by competitive binding ELISA
[4] = Half life in simulated intestinal fluid at 20 uM by LC-MS/MS analysis; format: ADME

Row | SMILES | IC50 [1] [nM] | IC50 (Interleukin-23 receptor [2]) [nM] | IC50 (Interleukin-23 receptor [3]) [nM] | half-life at 20 µM [4] [h]
1 | CC(=O)N[C@@H](CS)C(=O)N[C@@H](CCC(N)=O)C(=O)N[C@H](C(=O)N[C@@H](Cc1c[nH]c2ccccc12)C(=O)N[C@@H](CCC(N)=O)C(=O)N[C@@H](CS)C(=O)N[C@@H](Cc1ccc(O)cc1)C(=O)N[C@@H](Cc1c[nH]c2ccccc12)C(=O)N[C@@H](CCC(C)C)C(=O)N[C@@H](CCC(=O)O)C(=O)N1CCC[C@H]1C(=O)NCC(N)=O)[C@@H](C)O | 140 | – | – | –
2 | CC(=O)N[C@@H](CS)C(=O)N[C@@H](CCC(N)=O)C(=O)N[C@H](C(=O)N[C@@H](Cc1c[nH]c2ccccc12)C(=O)N[C@@H](CCC(N)=O)C(=O)N[C@@H](CS)C(=O)N[C@@H](Cc1ccc(O)cc1)C(=O)N[C@@H](Cc1c[nH]c2ccccc12)C(=O)N[C@@H](CCC(C)C)C(=O)N[C@@H](CCC(=O)O)C(=O)N[C@@H](CCC(=O)O)C(=O)NCC(N)=O)[C@@H](C)O (Ac-CQTWQCYW[hLeu]EEG-NH2) | 53 | – | – | –
3 | CC(=O)N[C@@H](CS)C(=O)N[C@@H](CO)C(=O)N[C@H](C(=O)N[C@@H](Cc1c[nH]c2ccccc12)C(=O)N[C@@H](CCC(=O)O)C(=O)N[C@@H](CS)C(=O)N[C@@H](Cc1ccc(O)cc1)C(=O)N[C@@H](Cc1c[nH]c2ccccc12)C(=O)N[C@@H](Cc1cnc[nH]1)C(=O)N[C@H](C(=O)N[C@@H](Cc1ccc(O)cc1)C(=O)NCC(N)=O)[C@@H](C)O)[C@@H](C)O | 286 | – | – | –
4 | CC(=O)N[C@@H](CS)C(=O)N[C@@H](CCN)C(=O)N[C@H](C(=O)N[C@@H](Cc1c[nH]c2ccccc12)C(=O)N[C@@H](CCC(N)=O)C(=O)N[C@@H](CS)C(=O)N[C@@H](Cc1ccc(O)cc1)C(=O)N[C@@H](Cc1c[nH]c2ccccc12)C(=O)N[C@@H](CCCNC(=N)N)C(=O)N[C@H](C(=O)N[C@@H](Cc1ccccc1)C(=O)NCC(=O)NCCOCC(=O)N[C@H](CCCCN)C(N)=O)C(C)C)[C@@H](C)O | 51 | – | – | –
5 | CC(=O)N[C@@H](CS)C(=O)N(C)[C@@H](CCCNC(=N)N)C(=O)N[C@H](C(=O)N[C@@H](Cc1c[nH]c2ccccc12)C(=O)N[C@@H](CCC(N)=O)C(=O)N[C@@H](CS)C(=O)N[C@@H](Cc1ccc(O)cc1)C(=O)N[C@@H](Cc1c[nH]c2ccccc12)C(=O)N[C@@H](CCCNC(=N)N)C(=O)N[C@H](C(=O)N[C@@H](Cc1ccccc1)C(=O)NCC(=O)NCCC(=O)N[C@H](CCCCN)C(N)=O)C(C)C)[C@@H](C)O | 192 | – | – | –
6 | CC(=O)N[C@H]1CCSC[C@@H](C(=O)N[C@@H](Cc2ccc(O)cc2)C(=O)N[C@@H](Cc2c[nH]c3ccccc23)C(=O)N[C@@H](CCC(C)C)C(=O)N[C@@H](CCC(=O)O)C(=O)N[C@@H](CC(N)=O)C(=O)NCC(N)=O)NC(=O)[C@H](CCC(N)=O)NC(=O)[C@H](Cc2c[nH]c3ccccc23)NC(=O)[C@H]([C@@H](C)O)NC(=O)[C@H](CCC(N)=O)NC1=O | – | 10 to 25 | 25 to 100 | < 1
7 | CC(=O)N[C@@H](CS)C(=O)N(C)[C@@H](CCC(N)=O)C(=O)N[C@H](C(=O)N[C@@H](Cc1c[nH]c2ccccc12)C(=O)N[C@@H](CCC(N)=O)C(=O)N[C@@H](CS)C(=O)N[C@@H](Cc1ccc(O)cc1)C(=O)N[C@@H](Cc1c[nH]c2ccccc12)C(=O)N[C@@H](CCCNC(=N)N)C(=O)N[C@H](C(=O)N[C@@H](Cc1ccccc1)C(=O)NCC(=O)NCCC(=O)N[C@H](CCCCN)C(N)=O)C(C)C)[C@@H](C)O | 85 | – | – | –
8 | CC(=O)N[C@@H](CS)C(=O)N[C@@H](CCC(N)=O)C(=O)N[C@H](C(=O)N[C@@H](Cc1c[nH]c2ccccc12)C(=O)N[C@@H](CCC(N)=O)C(=O)N[C@@H](CS)C(=O)N[C@@H](Cc1ccc2ccccc2c1)C(=O)N[C@@H](Cc1c[nH]c2ccccc12)C(=O)N[C@@H](CCC(C)C)C(=O)N[C@@H](CCC(=O)O)C(=O)N[C@@H](CC(N)=O)C(=O)NCC(N)=O)[C@@H](C)O | 73 | – | – | –
9 | CC(=O)N[C@@H](CS)C(=O)N[C@@H](CCC(N)=O)C(=O)N[C@H](C(=O)N[C@@H](Cc1c[nH]c2ccccc12)C(=O)N[C@@H](CCC(N)=O)C(=O)N[C@@H](CS)C(=O)N[C@@H](Cc1ccc(O)cc1)C(=O)N[C@@H](Cc1c[nH]c2ccccc12)C(=O)N[C@@H](CCC(C)C)C(=O)N[C@@H](CCC(=O)O)C(=O)N[C@@H](CC(N)=O)C(=O)N[C@@H](CCC(=O)O)C(N)=O)[C@@H](C)O | 1000 | – | – | –
10 | CC(=O)N[C@@H](CS)C(=O)N[C@@H](CCC(N)=O)C(=O)N[C@H](C(=O)N[C@@H](Cc1c[nH]c2ccccc12)C(=O)N[C@@H](CCC(N)=O)C(=O)N[C@@H](CS)C(=O)N[C@@H](Cc1ccc(O)cc1)C(=O)N[C@@H](Cc1c[nH]c2ccccc12)C(=O)N[C@@H](CCCNC(=N)N)C(=O)N[C@H](C(=O)N[C@@H](Cc1ccccc1)C(=O)NCC(=O)NCCOCC(=O)N[C@H](CCCCN)C(N)=O)C(C)C)[C@@H](C)O | 62 | – | – | –
11 | CC(=O)N[C@@H](CS)C(=O)N[C@@H](CCCNC(=N)N)C(=O)N[C@H](C(=O)N[C@@H](Cc1c[nH]c2ccccc12)C(=O)N[C@@H](CCC(N)=O)C(=O)N[C@@H](CS)C(=O)N[C@@H](Cc1ccc(O)cc1)C(=O)N[C@@H](Cc1c[nH]c2ccccc12)C(=O)N[C@@H](CCCNC(=N)N)C(=O)N[C@@H](CCC(=O)O)C(=O)N[C@@H](CC(N)=O)C(=O)NCC(=O)N[C@@H](C)C(=O)N[C@H](CCCCN)C(N)=O)[C@@H](C)O | 86 | – | – | –
12 | CC(=O)N[C@@H](CS)C(=O)N[C@@H](CCCN)C(=O)N[C@H](C(=O)N[C@@H](Cc1c[nH]c2ccccc12)C(=O)N[C@@H](CCC(N)=O)C(=O)N[C@@H](CS)C(=O)N[C@@H](Cc1ccc(O)cc1)C(=O)N[C@@H](Cc1c[nH]c2ccccc12)C(=O)N[C@@H](CCCNC(=N)N)C(=O)N[C@H](C(=O)N[C@@H](Cc1ccccc1)C(=O)NCC(=O)NCCOCC(=O)N[C@H](CCCCN)C(N)=O)C(C)C)[C@@H](C)O | 69 | – | – | –
13 | CC(=O)N[C@H]1CCSC[C@@H](C(=O)N[C@@H](Cc2ccc(OCCN)cc2)C(=O)N[C@@H](Cc2ccc3ccccc3c2)C(=O)N[C@@H](CCCN)C(=O)N[C@@H](CN)C(=O)N[C@@H](CC(N)=O)C(=O)NCC(N)=O)NC(=O)[C@H](CCC(N)=O)NC(=O)[C@H](Cc2c[nH]c3ccccc23)NC(=O)[C@H]([C@@H](C)O)NC(=O)[C@H](CCC(N)=O)NC1=O | – | 25 to 100 | 25 to 100 | < 1
14 | CC(=O)NCCCC[C@H](NC(=O)[C@H](CCCN)NC(=O)[C@H](Cc1ccc2ccccc2c1)NC(=O)[C@H](Cc1ccc(OCCN)cc1)NC(=O)[C@@H]1CSCC[C@H](NC(C)=O)C(=O)N[C@@H](CCC(N)=O)C(=O)N[C@@H]([C@@H](C)O)C(=O)N[C@@H](Cc2c[nH]c3ccccc23)C(=O)N[C@@H](CCC(N)=O)C(=O)N1)C(=O)N[C@@H](CC(N)=O)C(=O)NCC(N)=O | – | 10 to 25 | 10 to 25 | < 1
15 | CC(=O)NCCCC[C@H](NC(=O)[C@](C)(CCCCN)NC(=O)[C@H](Cc1ccc2ccccc2c1)NC(=O)[C@H](Cc1ccc(Cl)c(Cl)c1)NC(=O)[C@@H]1CSCC[C@H](NC(C)=O)C(=O)N[C@@H](CCC(N)=O)C(=O)N[C@@H]([C@@H](C)O)C(=O)N[C@@H](Cc2c[nH]c3ccccc23)C(=O)N[C@@H](CCC(N)=O)C(=O)N1)C(=O)N[C@@H](CC(N)=O)C(=O)NCC(N)=O | – | 25 to 100 | 100 to 1000 | 2 to 3
16 | CC(=O)N[C@H](C(=O)N[C@@H](CCC(N)=O)C(=O)N[C@H](C(=O)N[C@@H](Cc1c[nH]c2ccccc12)C(=O)N[C@@H](CCC(N)=O)C(=O)N[C@H](C(=O)N[C@@H](Cc1ccc(O)cc1)C(=O)N[C@@H](Cc1c[nH]c2ccccc12)C(=O)N[C@H](CC(N)=O)C(=O)N[C@@H](CCC(=O)O)C(=O)N[C@@H](CC(N)=O)C(=O)NCC(N)=O)C(C)(C)S)[C@@H](C)O)C(C)(C)S | – | – | 1000 to 10000 | 3 to 6
